What was measured:
Assay type in all cases: biochemical
[1] = Peroxide value (POV) activity, modified Rodan's method; conditions: 0.1 g/ml in ethyl alcohol, 0.05 ml; 50° C., 3 days, dark; OD 500 nm
Experimental: Peroxide value (POV) activity was determined by a slightly modified Rodan's method (Terasawa, N., Yamazaki, N., and Fukui Y: Antioxidant activity of water extracts of herbs, Nippon Shokuhin Kagaku Kogaku Kaishi, 48, 2, 99-104, 2001.)
After mixing in a screw-capped test tube, the reaction mass was incubated inside a dark incubator at 50° C. for 3 days. The assay of liberated peroxide compounds was carried out as follows.
After 3 minutes, optical density was measured at 500 nm. Percent POV activity was calculated as follows:
Percent activity=100×(OD of sample or standard/OD of control)

[2] = DPPH free radical scavenging activity (preferred embodiment); conditions: standard compounds 100 mg/ml (0.1 g/ml) in ethyl alcohol; OD 517 nm, 30 min
Experimental: Free radical scavenging activity was then evaluated. Standard solutions (0.1 g/ml in ethyl alcohol) of BHA, BHT and vitamin E were freshly prepared. DPPH scavenging activity was determined as described below. The following observations and results were then recorded: [table] Optical density OD was measured at 517 nm at 0 min and 30 min after mixing. Percent free radical scavenging activity was calculated as follows: Percent activity=100×{Ac1−(At2−Ab1)}/Ac2, Where Ac1=OD of control at 0 min At2=OD of test at 30 min Ab1=OD of blank at 0 min Ac2=OD of control at 30 min

[3] = DPPH free radical scavenging activity (Example 9); conditions: standard compounds 100 mg/ml in ethyl alcohol
Experimental: The said Sample was washed with ethyl acetate to get organic acids crystallized out. The crystals mainly consisted of succinic acid, which was identified by RI and H-NMR. The remaining magma, called bio-polyphenols (BPP) was tested for its anti-oxidant activity. The BPP was dissolved in ethyl alcohol to get concentrations of 100 mg/ml to 400 mg/ml. Standard compounds of BHA, BHT and vitamin E, which are recognized as strong anti-oxidants, and ZR drink described in Example 4 were also employed for comparison. Concentration of standard compounds in ethyl alcohol was 100 mg/ml each. The assay method to determine the scavenging activity of free radical DPPH was as described below.
Optical density OD was measured at 517 nm at 0 mm and 30 mm after mixing. Percent free radical scavenging activity was calculated as follows.
Percent activity=(Ac 1−(At2−Ab 1)}/Ac2×100,
Where Ac1=of control at 0 mm
Ac2=OD of control at 30 mm

Row | Compound | Percent activity (POV) = 100 x OD of sample or standard / OD of control [1] | Percent activity (free radical scavenging) [2] | Percent activity (free radical scavenging) [3]
1 | COc1ccc(O)c(C(C)(C)C)c1 [BHA] | 8.9% | 83.0% | 83.0%
2 | Cc1cc(C(C)(C)C)c(O)c(C(C)(C)C)c1 [BHT] | 13.5% | 83.4% | 83.4%
3 | vitamin E | 0% | 83.0% | 83.0%

From patent US20030219456A1, “Method of utilization of zygosaccharomyces rouxii” (priority 2002, published 2003)
